Results reported in PubChem BioAssay AID1224921 (Broad Institute, 2016).
The source made the active and inactive calls. No rule for the calls is given here.

Test system: Clostridioides difficile clinical isolate growth, OD600, 24 h
Test: C. difficile growth inhibition, confirmation, 4-point retest (AID 1224921)

Structure (SMILES) | AC50
O=C(NCC[C@@H]1CC[C@H](NC(=O)c2cccnc2)[C@@H](CO)O1)Nc1ccc(C(F)(F)F)cc1 | 17 µM
O=C(C[C@@H]1CC[C@H]2[C@@H](COC[C@H](O)CN2C(=O)Nc2ccc(Cl)c(Cl)c2)O1)NCc1ccccc1 | 3.53 µM
C[C@H]1CN([C@@H](C)CO)C(=O)CCCn2nncc2CO[C@@H]1CN(C)C(=O)Nc1ccc(C(F)(F)F)cc1 | 17.7 µM
O=C(C[C@@H]1CC[C@H]2[C@@H](COC[C@@H](O)CN2C(=O)Nc2cc(Cl)cc(Cl)c2)O1)NCC1CC1 | 16.2 µM
COc1ccc(-c2ccc([C@H]3[C@@H](C#N)N(C(=O)C4CCC4)[C@H]3CO)cc2)cc1 | > 70 µM (inactive)
O=C(C[C@@H]1CC[C@@H]2[C@H](COC[C@@H](O)CN2C(=O)Nc2ccc(Cl)c(Cl)c2)O1)NCc1ccc(Cl)cc1 | 0.98 µM
CCCN(C)C[C@@H]1OCCCC[C@H](C)Oc2ccc(NC(=O)Nc3ccc(C(F)(F)F)cc3)cc2C(=O)N([C@@H](C)CO)C[C@@H]1C | 12.5 µM
CO[C@@H]1CN(C)C(=O)c2cc(NC(=O)Nc3ccc(Cl)c(Cl)c3)ccc2OC[C@H](C)NC[C@@H]1C | 8.13 µM
O=C(NCC[C@H]1CC[C@H](NC(=O)c2cccnc2)[C@H](CO)O1)Nc1ccc(C(F)(F)F)cc1 | 1.6 µM
C[C@@H]1CCCCO[C@H](CN(C)Cc2ccc3c(c2)OCO3)[C@@H](C)CN([C@@H](C)CO)C(=O)c2cc(NC(=O)Nc3ccc(C(F)(F)F)cc3)ccc2O1 | 20.9 µM
O=C(C[C@H]1CC[C@@H]2[C@H](COC[C@@H](O)CN2C(=O)Nc2ccc(Cl)c(Cl)c2)O1)NC1CCC1 | 8.68 µM
O=C(C[C@@H]1CC[C@@H]2[C@H](COC[C@H](O)CN2C(=O)Nc2ccc(Cl)c(Cl)c2)O1)NCc1ccc(F)cc1 | 0.968 µM
CO[C@@H](CN(C)Cc1cc(F)ccc1F)[C@@H](C)CN(C(=O)Nc1ccc(C(F)(F)F)cc1)[C@@H](C)CO | 13.1 µM
O=C(C[C@H]1CC[C@@H]2[C@H](COC[C@@H](O)CN2C(=O)Nc2ccc(Cl)c(Cl)c2)O1)NCc1ccc(Cl)c(Cl)c1 | 3.34 µM
O=C(C[C@@H]1CC[C@@H]2[C@H](COC[C@@H](O)CN2C(=O)Nc2ccc(Cl)c(Cl)c2)O1)NCc1ccccc1 | 1.4 µM
O=C(C[C@@H]1CC[C@H]2[C@@H](COC[C@H](O)CN2C(=O)Nc2ccc(Cl)c(Cl)c2)O1)NCc1ccncc1 | 3.77 µM
C[C@@H]1CCCCO[C@@H](CN(C)CC2CC2)[C@@H](C)CN([C@H](C)CO)C(=O)c2cc(NC(=O)Nc3ccc(C(F)(F)F)cc3)ccc2O1 | 35.5 µM
CCCN(C)C[C@H]1OCCCC[C@@H](C)Oc2ccc(NC(=O)Nc3ccc(C(F)(F)F)cc3)cc2C(=O)N([C@@H](C)CO)C[C@H]1C | 10.5 µM
C[C@@H]1CN([C@H](C)CO)C(=O)c2cc(NC(=O)Nc3cccc4ccccc34)ccc2O[C@@H](C)CCCCO[C@@H]1CN(C)CC1CCCCC1 | > 60 µM (inactive)
C[C@@H]1CN([C@H](C)CO)S(=O)(=O)c2ccc(C#CCC3CCCC3)cc2O[C@@H]1CN(C)C(=O)CN(C)C | 17.6 µM
C[C@@H](NC(=O)C[C@H]1CC[C@H]2[C@@H](COC[C@H](O)CN2C(=O)Nc2cccc(Cl)c2)O1)c1ccccc1 | 9.84 µM
O=C(C[C@H]1CC[C@@H]2[C@H](COC[C@H](O)CN2C(=O)Nc2ccc(Cl)c(Cl)c2)O1)NCc1ccc(Cl)c(Cl)c1 | < 0.5 µM
O=C(NCC[C@@H]1CC[C@H](NC(=O)C2CCCCC2)[C@H](CO)O1)Nc1ccc(Cl)cc1 | 30 µM
C[C@@H]1CN([C@@H](C)CO)C(=O)Cc2cc(N(C)C)ccc2O[C@H]1CN(C)Cc1ccc(C(F)(F)F)cc1 | 29.1 µM

Structure (SMILES) | AC50
C[C@H](CO)N1C[C@H](C)[C@@H](CN(C)C(=O)Nc2ccc(C(F)(F)F)cc2)Oc2ccc(NC(=O)C3CC3)cc2C1=O | 15.5 µM
O=C(C[C@@H]1CC[C@@H]2[C@H](COC[C@H](O)CN2C(=O)Nc2ccc(C(F)(F)F)cc2)O1)NCC1CC1 | 1.14 µM
O=C(C[C@H]1CC[C@H]2[C@@H](COC[C@@H](O)CN2C(=O)Nc2ccc(Cl)c(Cl)c2)O1)NC1CCC1 | 4.29 µM
O=C(NCC[C@H]1CC[C@@H](NC(=O)c2cccnc2)[C@H](CO)O1)Nc1ccc(C(F)(F)F)cc1 | 2.42 µM
Cc1ccc(S(=O)(=O)Nc2ccc3c(c2)C(=O)N([C@@H](C)CO)C[C@H](C)[C@@H](CN(C)Cc2ccc4c(c2)OCO4)OCCCC[C@@H](C)O3)cc1 | 7.88 µM
C[C@@H]1CCCCO[C@H](CN(C)Cc2ccccc2)[C@@H](C)CN([C@@H](C)CO)C(=O)c2cc(NC(=O)Nc3ccc(C(F)(F)F)cc3)ccc2O1 | 12.5 µM
O=C(C[C@H]1CC[C@H]2[C@@H](COC[C@H](O)CN2C(=O)Nc2ccc(C(F)(F)F)cc2)O1)NC1Cc2ccccc2C1 | 1.54 µM
O=C(C[C@H]1CC[C@H]2[C@@H](COC[C@H](O)CN2C(=O)Nc2ccc(Cl)c(Cl)c2)O1)NCc1ccccc1 | 1.11 µM
O=C(C[C@H]1CC[C@@H]2[C@H](COC[C@@H](O)CN2S(=O)(=O)c2ccc(F)cc2)O1)NCC1CCCCC1 | 15.8 µM
C[C@@H]1CN([C@H](C)CO)C(=O)Cc2cc(NS(=O)(=O)c3ccc(Cl)cc3)ccc2O[C@H]1CN(C)CC1CCCCC1 | 18 µM
CC(C)NC(=O)N(C)C[C@@H]1Oc2c(NC(=O)Nc3ccc(C(F)(F)F)cc3)cccc2C(=O)N([C@H](C)CO)C[C@@H]1C | 23.3 µM
CCCNC(=O)C[C@H]1CC[C@@H]2[C@H](COC[C@H](O)CN2C(=O)Nc2ccc(Cl)c(Cl)c2)O1 | 3.77 µM
C[C@@H]1CN([C@H](C)CO)C(=O)c2cc(C#CCc3ccccc3)cnc2O[C@H]1CN(C)CC1CCCC1 | 31 µM
COc1ccc(S(=O)(=O)Nc2cccc3c2O[C@H](CN(C)Cc2ccc(Oc4ccccc4)cc2)[C@H](C)CN([C@@H](C)CO)C3=O)cc1 | 3.67 µM
C[C@H]1CN([C@@H](C)CO)S(=O)(=O)c2ccc(C#CC3CCCC3)cc2O[C@@H]1CN(C)Cc1cccnc1 | > 60 µM (inactive)
C[C@@H]1CN([C@@H](C)CO)C(=O)c2cccc(NC(=O)Nc3ccc(C(F)(F)F)cc3)c2O[C@@H]1CN(C)CC1CCCCC1 | 3.63 µM
C[C@@H]1CCCCO[C@H](CN(C)CC2CCCCC2)[C@H](C)CN([C@H](C)CO)C(=O)c2cc(NC(=O)Nc3ccc(C(F)(F)F)cc3)ccc2O1 | 13.6 µM
C[C@@H]1CN([C@H](C)CO)C(=O)Cc2cc(NC(=O)CCCN(C)C)ccc2O[C@H]1CN(C)Cc1ccc(-c2ccccc2)cc1 | 19 µM
O=C(C[C@@H]1CC[C@@H]2[C@H](COC[C@H](O)CN2C(=O)Nc2ccc(C(F)(F)F)cc2)O1)NC1Cc2ccccc2C1 | 19 µM
CCC(=O)N[C@H]1CC[C@@H](CCNC(=O)Nc2ccc(C(F)(F)F)cc2)O[C@@H]1CO | 2.73 µM
CO[C@@H]1CN(C)C(=O)c2ccc(NC(=O)Nc3cc(Cl)cc(Cl)c3)cc2OC[C@H](C)NC[C@@H]1C | 8.07 µM
CO[C@@H]1CN(C)C(=O)c2cc(NC(=O)c3cc(C)on3)ccc2OC[C@H](C)N(C(C)=O)C[C@@H]1C | > 60 µM (inactive)
CCNC(=O)C[C@@H]1CC[C@@H]2[C@H](COC[C@@H](O)CN2C(=O)Nc2ccc(C(F)(F)F)cc2)O1 | 13.6 µM
CO[C@H]1CN(C)C(=O)c2cc(NC(=O)Nc3ccc(Cl)c(Cl)c3)ccc2OC[C@@H](C)NC[C@H]1C | 9.16 µM

Structure (SMILES) | AC50
O=C(NCC[C@@H]1CC[C@H](NC(=O)c2cccnc2)[C@H](CO)O1)Nc1ccc(C(F)(F)F)cc1 | 3.01 µM
COc1ccccc1CNC(=O)C[C@H]1CC[C@@H]2[C@H](COC[C@H](O)CN2C(=O)Nc2ccc(C(F)(F)F)cc2)O1 | 1.04 µM
N#C[C@H]1[C@H](c2ccc(C#Cc3ccc(F)cc3)cc2)[C@@H](CO)N1C(=O)C1CCCC1 | > 70 µM (inactive)
CNC(=O)C[C@@H]1CC[C@H]2[C@@H](COC[C@H](O)CN2C(=O)Nc2ccc(Cl)c(Cl)c2)O1 | 7.63 µM
CNC(=O)C[C@@H]1CC[C@H]2[C@@H](COC[C@@H](O)CN2C(=O)Nc2ccc(Cl)c(Cl)c2)O1 | 11.9 µM
O=C(C[C@H]1CC[C@@H]2[C@H](COC[C@H](O)CN2C(=O)Nc2ccc(Cl)c(Cl)c2)O1)NC1CCC1 | 4.46 µM
C[C@@H]1CN([C@@H](C)CO)C(=O)c2cc(NC(=O)Nc3ccc(C(F)(F)F)cc3)ccc2O[C@@H](C)CCCCO[C@H]1CN(C)CC1CCCCC1 | 4.9 µM
C[C@@H]1CN([C@@H](C)CO)C(=O)Cc2cc(NC(=O)Nc3ccc(C(F)(F)F)cc3)ccc2O[C@H]1CN(C)Cc1ccccc1 | 17.9 µM
O=C(NCC[C@@H]1CC[C@@H](NC(=O)c2cccnc2)[C@@H](CO)O1)Nc1ccc(C(F)(F)F)cc1 | 13.8 µM
O=C(C[C@H]1CC[C@H]2[C@@H](COC[C@@H](O)CN2C(=O)Nc2ccc(C(F)(F)F)cc2)O1)NCC1CC1 | 1.18 µM
CCNC(=O)C[C@H]1CC[C@@H]2[C@H](COC[C@@H](O)CN2C(=O)Nc2ccc(Cl)c(Cl)c2)O1 | 4.25 µM
C[C@@H]1CN([C@H](C)CO)C(=O)c2cccc(NC(=O)Nc3ccc(C(F)(F)F)cc3)c2O[C@@H]1CN(C)Cc1ccc(-c2ccccc2)cc1 | 18.3 µM
CCNC(=O)C[C@H]1CC[C@@H]2[C@H](COC[C@H](O)CN2C(=O)Nc2ccc(C(F)(F)F)cc2)O1 | 3.45 µM
CCNC(=O)C[C@@H]1CC[C@H]2[C@@H](COC[C@H](O)CN2C(=O)Nc2ccc(Cl)c(Cl)c2)O1 | 7.98 µM
CO[C@H]1CN(C)C(=O)c2ccc(NC(=O)Nc3ccc(Cl)c(Cl)c3)cc2OC[C@H](C)NC[C@H]1C | 9.83 µM
COc1ccccc1CNC(=O)C[C@H]1CC[C@H]2[C@@H](COC[C@@H](O)CN2C(=O)Nc2ccc(C(F)(F)F)cc2)O1 | 2.4 µM
CO[C@@H]1CN(C)C(=O)c2ccc(NC(=O)C3CCC3)cc2OC[C@@H](C)N(C(=O)Nc2ccc(C(F)(F)F)cc2)C[C@H]1C | 11.6 µM
O=C(C[C@H]1CC[C@H]2[C@@H](COC[C@H](O)CN2C(=O)Nc2ccc(Cl)c(Cl)c2)O1)NCc1ccncc1 | 0.575 µM
COc1cccc(C#Cc2ccc([C@H]3[C@@H](CO)N(C(=O)C4CCCCC4)[C@H]3C#N)cc2)c1 | 19 µM
COc1ccc(CN(C)C[C@H]2Oc3c(NC(=O)Nc4ccc(C(F)(F)F)cc4)cccc3C(=O)N([C@@H](C)CO)C[C@H]2C)cc1 | 1.65 µM
C[C@@H]1CN([C@@H](C)CO)C(=O)Cc2cc(NS(C)(=O)=O)ccc2O[C@H]1CN(C)Cc1ccc(Cl)c(Cl)c1 | 8.49 µM
C[C@@H]1CN([C@@H](C)CO)C(=O)c2c(c3ccccc3n2C)-c2ccccc2CO[C@@H]1CN(C)Cc1ccncc1 | > 60 µM (inactive)
C[C@H](CO)N1C[C@H](C)[C@@H](CN(C)CC2CCCCC2)OCCCC[C@H](C)Oc2ccc(NC(=O)Nc3ccc(C(F)(F)F)cc3)cc2C1=O | 13.6 µM
